This note sets out measurements from ChEMBL document CHEMBL3507680, “University of Dundee, Gates Library screen for HepG2 cell viability”.

The data set in a line: Human HepG2 cell viability assay in 384 well format. The data set is classed as toxicity, cell-based. More on the design: dose 125 nL, time 70.5 hour; concentration not given beside the values. As to conditions: HepG2 cells, read-out: Inhibition.
Take `c1ccc(CO[C@H]2C[C@@H]3CN(Cc4cccnc4)C[C@@H]3C2)cc1`: the cytotoxicity at 70.5 h is -3.52%.
With `Cc1cnc(C(=O)N(C)[C@@H]2CCC[C@@H](Oc3ccccc3)[C@@H]2O)cn1`, the cytotoxicity at 70.5 h worked out at 16.9%.
Consider `Cc1nc2ccccn2c1CC(=O)N[C@@H]1CC[C@@H](N2CCOCC2)[C@@H]1O`, for which the cytotoxicity at 70.5 h is -1.29%.
As for `Cc1n[nH]c(C)c1-c1cnc(CC2CCN(C(C)C)CC2)cn1`, the figure is -2.78%.
With `CN1CCCC[C@@H]2[C@H]1[C@@H](c1ccccc1)CCN2S(=O)(=O)N1CCCC1` the figure was -1.85%; with `COCCN1CCCC(c2nc(C)n3c(C)c(C)sc23)C1` (stereo not drawn), -5.38%.
In the case of `Cc1cccc2nc(C(=O)N3CCCC[C@]4(C)NC(=O)CC[C@H]34)cn12`, the cytotoxicity at 70.5 h was -0.96%.
For the compound `O[C@H]1CN(Cc2ccc3c(c2)OCCO3)CC[C@@]12CCCO2`, the cytotoxicity at 70.5 h is -2.15%.
As for `CO[C@H]1CN(Cc2ccc(F)cc2)CC[C@@]12CCCO2`, the figure is 6.89%.
Turning to `O=C(CCCn1cccn1)N1C[C@@H](O)[C@H](Oc2cccc(F)c2)C1`, the cytotoxicity at 70.5 h stood at 3.04%.
With `CC(C)n1ccnc1CN1CCCC1c1cccc(-n2ccnc2)n1` (stereo not drawn) the figure was -2.76%; with `Nc1nccnc1C1CN(C(=O)c2cnc(C3CC3)nc2)CCO1` (stereo not drawn), -4.03%.
With `CN1CCN(C(=O)C2CCCN(c3cccnn3)C2)CC1` (stereo not drawn) the figure was 26.4%.
Regarding `COc1ccc(OC)c(C(O)CN2CCC(N3CCC(C)CC3)CC2)c1` (stereo not drawn), the cytotoxicity at 70.5 h amounted to 2.26%.
With `CC(=O)N1CCC(C(=O)N2CCCC(Cc3cccc(C)n3)C2)CC1` (stereo not drawn) the figure was -4.08%.
In the case of `Cn1nccc1CCC(=O)N1CCC(c2cnccn2)CC1`, the cytotoxicity at 70.5 h was -13.1%.
With `Cc1nc2ccc(C(=O)N3C[C@@H](O)[C@H](N4CCOCC4)C3)cc2[nH]1` the figure was 12%.
As to `CCN(Cc1ccncc1)CC1(O)CCN(C(=O)c2ccccc2C)C1` (stereo not drawn), the cytotoxicity at 70.5 h was -2.28%.
With `CNc1cncc(C2CCCN2S(=O)(=O)c2ccccc2)n1` (stereo not drawn) the figure was 0.983%; with `CS(=O)(=O)c1cn[nH]c1C1CCCCN1C(=O)c1cncs1` (stereo not drawn), -6.78%.
As to `Cn1nccc1CCC(=O)N1CCCC(c2cnccn2)C1` (stereo not drawn), the cytotoxicity at 70.5 h is 12.9%.
With `CNC(=O)c1ccc(C2CCCN(C(=O)c3c(C)noc3C)C2)nc1` (stereo not drawn), the cytotoxicity at 70.5 h was -7.86%.
In the case of `CC(=O)N1CCC(Cc2cncc(-c3c(C)n[nH]c3C)n2)C1` (stereo not drawn), the cytotoxicity at 70.5 h was -9.36%.
Turning to `CC1CCN(CCNCc2cc(-c3ccccc3)cn3nnnc23)CC1`, the cytotoxicity at 70.5 h was -3.94%.
For the compound `COCCN1CCN(Cc2cnc(C)nc2)CC1`, the cytotoxicity at 70.5 h was -6.04%.
Turning to `Cn1ccnc1C(=O)N1CCOC(Cc2ccccc2Cl)C1` (stereo not drawn), the cytotoxicity at 70.5 h turned out to be 11.6%.
As for `O=C(CCn1ccnc1)N1C[C@@H](O)[C@H](Oc2cccc(F)c2)C1`, the cytotoxicity at 70.5 h came out at 0.895%.
Consider `Cc1cc(C)nc(C2CCN(C(=O)c3c(C)noc3C)C2)n1` (stereo not drawn), for which the cytotoxicity at 70.5 h is -3.76%.
As for `Cc1cc(C)nc(C2CCN(C(=O)c3cncnc3C)C2)n1` (stereo not drawn), the figure is 12.9%; as for `O=S(=O)(c1ccc(F)c(F)c1)N1CCCC(c2nccs2)C1` (stereo not drawn), 1.6%.
For `CCc1nnc(Nc2cccc(C3CCN(c4cnccn4)CC3)n2)s1`, the cytotoxicity at 70.5 h is 14.7%.
As for `CCc1nnc(Nc2cccc(C3CCN(C(=O)CNC)CC3)n2)s1`, the figure is 10.1%.
As to `CCc1nnc(Nc2cccc(C3CCN(C(=O)CN(C)C)CC3)n2)s1`, the cytotoxicity at 70.5 h worked out at 9.15%.
With `c1ccc(CN2CCC(c3nccnc3-n3ccnc3)CC2)cc1` the figure was -14.9%; with `CCc1nnc(Nc2cccc(C3CCCN(CC(C)(C)C)C3)n2)s1` (stereo not drawn), -10.7%; with `CCC(=O)N1CCC(Cc2ccccc2-c2ccncc2)(C(N)=O)C1` (stereo not drawn), -10.9%.
Consider `CC(C)c1ncc(CN2CCOC(C(=O)Nc3ccccc3)C2)cn1` (stereo not drawn), for which the cytotoxicity at 70.5 h is -9.69%.
`Cc1ccc(Nc2nccc(C3CCN(C(=O)CN)C3)n2)nc1` (stereo not drawn): the cytotoxicity at 70.5 h was -5.12%.
